Assay results as given in patent publication US12233047B2, “Pharmaceutical combination and use thereof” (ASCENTAGE PHARMA (SUZHOU) CO., LTD., priority 2019, dated 2025).
Positions count from the first letter of the chain named.

Experiments:
FLT3 (D835H) = molecular target: T1, FLT3 (D835H) (Homo sapiens, UniProt P36888, D835H); test: KINOMEscan kinase binding assay, FLT3 (D835H)
T1 construct: host or cells: T7 phage in E. coli (BL21-derived) or HEK-293
T1 sequence (P36888 27-993 D835H): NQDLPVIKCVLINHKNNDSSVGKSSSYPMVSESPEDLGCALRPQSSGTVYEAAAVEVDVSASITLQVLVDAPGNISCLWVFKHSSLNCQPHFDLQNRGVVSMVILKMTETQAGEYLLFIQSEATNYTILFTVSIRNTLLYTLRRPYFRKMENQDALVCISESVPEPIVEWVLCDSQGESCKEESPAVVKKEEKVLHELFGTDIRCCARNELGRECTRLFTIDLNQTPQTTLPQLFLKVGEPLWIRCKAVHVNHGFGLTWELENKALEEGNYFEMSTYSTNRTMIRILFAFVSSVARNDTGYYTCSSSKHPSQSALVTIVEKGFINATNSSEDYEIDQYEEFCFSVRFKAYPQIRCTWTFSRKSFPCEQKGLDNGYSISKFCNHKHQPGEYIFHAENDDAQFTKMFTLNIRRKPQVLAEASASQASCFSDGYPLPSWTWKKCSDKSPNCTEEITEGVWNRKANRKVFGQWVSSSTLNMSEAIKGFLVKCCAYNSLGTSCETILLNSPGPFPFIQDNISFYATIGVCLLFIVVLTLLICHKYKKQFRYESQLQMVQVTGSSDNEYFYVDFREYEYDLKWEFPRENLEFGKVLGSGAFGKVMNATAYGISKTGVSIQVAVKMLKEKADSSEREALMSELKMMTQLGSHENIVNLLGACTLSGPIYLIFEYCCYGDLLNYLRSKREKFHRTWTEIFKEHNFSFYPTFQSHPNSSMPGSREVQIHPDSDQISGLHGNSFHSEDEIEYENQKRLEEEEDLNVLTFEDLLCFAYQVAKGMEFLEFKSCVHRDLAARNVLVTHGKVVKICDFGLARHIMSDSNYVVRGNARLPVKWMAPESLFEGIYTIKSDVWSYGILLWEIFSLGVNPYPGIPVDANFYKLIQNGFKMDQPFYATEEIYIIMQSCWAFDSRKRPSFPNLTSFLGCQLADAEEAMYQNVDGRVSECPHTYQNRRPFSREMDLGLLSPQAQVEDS
Procedure: (§1) The kinase assay was conducted using KINOMEscan™.
(§2) Kinase-tagged T7 phage strains were grown in parallel in 24-well blocks in an E. coli host derived from the BL21 strain. E. coli were grown to log-phase and infected with T7 phage from a frozen stock (multiplicity of infection=0.4) and incubated with shaking at 32° C. until lysis (90-150 minutes). The lysates were centrifuged (6,000×g) and filtered (0.2 μm) to remove cell debris. The remaining kinases were produced in HEK-293 cells and subsequently tagged with DNA for qPCR detection. Streptavidin-coated magnetic beads were treated with biotinylated small molecule ligands for 30 minutes at room temperature to generate affinity resins for kinase assays. The liganded beads were blocked with excess biotin and washed with blocking buffer (SeaBlock (Pierce), 1% BSA, 0.05% Tween 20, 1 mM DTT) to remove unbound ligand and to reduce non-specific phage binding. Binding reactions were assembled by combining kinases, liganded affinity beads, and test compound (Compound 23) in 1× binding buffer (20% SeaBlock, 0.17×PBS, 0.05% Tween 20, 6 mM DTT). Test compound were prepared as 40× stocks in 100% DMSO and directly diluted into the assay. All reactions were performed in polypropylene 384-well plates in a final volume of 0.04 ml. […] The kinase concentration in the eluates was measured by qPCR. […]

FLT3 (D835Y) = molecular target: T2, FLT3 (D835Y) (Homo sapiens, UniProt P36888, D835Y); test: KINOMEscan kinase binding assay, FLT3 (D835Y)
T2 construct: host or cells: T7 phage in E. coli (BL21-derived) or HEK-293
T2 sequence (P36888 27-993 D835Y): T1 sequence (P36888 27-993 D835H) with H809Y
Procedure: as §1, §2

Compound: Cc1ccc(C(=O)Nc2ccc(CN3CCN(C)CC3)c(C(F)(F)F)c2)cc1C#Cc1cnc2[nH]ncc2c1 [Compound 23, 3-(2-(1H-pyrazolo[3,4-b]pyridin-5-yl)ethynyl)-4-methyl-N-(4-((4-methylpiperazin-1-yl)methyl)-3-(trifluoromethyl)phenyl)benzamide]
- % Ctrl@10 nM (FLT3 (D835H); 10 nM): 18 % Ctrl
- % Ctrl@100 nM (FLT3 (D835H); 100 nM): 2.2 % Ctrl
- % Ctrl@10 nM (FLT3 (D835Y); 10 nM): 42 % Ctrl
- % Ctrl@100 nM (FLT3 (D835Y); 100 nM): 17 % Ctrl
